“And” between values parts separate entries of the source, which are not always exact repeats. Equal values may be shown once. Inconclusive results and toxic doses are left out.
Tested on: P388 leukemia ip, CD2F1 mice, survival T/C
Assay: NCI In Vivo Anticancer Drug Screen. Data for tumor model P388 Leukemia (intraperitoneal) in CD2F1 (CDF1) mice
Conditions: endpoint: median survival time, higher = longer survival
Outline: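 Mice carrying the transplanted tumor received test compound or vehicle. Survival was recorded in each group, and the value is the treated-group measurement divided by that of the vehicle-treated control group.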

[1] = dose: 50.0 mg/kg/injection, schedule: Q01DX009 (ip), vehicle: saline with Tween-80
[2] = dose: 100.0 mg/kg/injection, schedule: Q01DX009 (ip), vehicle: saline with Tween-80
[3] = dose: 200.0 mg/kg/injection, schedule: Q01DX009 (ip), vehicle: saline with Tween-80
[4] = dose: 100.0 mg/kg/injection, schedule: Q04DX002 (ip), vehicle: saline with Tween-80
[5] = dose: 200.0 mg/kg/injection, schedule: Q04DX002 (ip), vehicle: saline with Tween-80
[6] = dose: 50.0 mg/kg/injection, schedule: Q01DX005 (ip), vehicle: Klucel (hydroxypropylcellulose) (HPC)
[7] = dose: 100.0 mg/kg/injection, schedule: Q01DX005 (ip), vehicle: Klucel (hydroxypropylcellulose) (HPC)
[8] = dose: 20.0 mg/kg/injection, schedule: Q01DX009 (ip), vehicle: other
[9] = dose: 60.0 mg/kg/injection, schedule: Q01DX005 (ip), vehicle: saline with Tween-80
[10] = dose: 120.0 mg/kg/injection, schedule: Q01DX005 (ip), vehicle: saline with Tween-80
[11] = dose: 400.0 mg/kg/injection, schedule: Q04DX002 (ip), vehicle: saline with Tween-80

With O=C(O)c1cnc2ccccn12 the T/C (dose: 50.0 mg/kg/injection, schedule: Q01DX009 (ip), vehicle: acetone) was 112 % of control, the T/C (dose: 50.0 mg/kg/injection, schedule: Q01DX009 (ip), vehicle: saline) was 95 % of control and the T/C (dose: 100.0 mg/kg/injection, schedule: Q01DX009 (ip), vehicle: acetone) was 117 % of control. For the same molecule, the T/C (dose: 100.0 mg/kg/injection, schedule: Q01DX009 (ip), vehicle: saline) was 96 % of control, the T/C (dose: 200.0 mg/kg/injection, schedule: Q01DX009 (ip), vehicle: acetone) was 102 % of control and the T/C (dose: 200.0 mg/kg/injection, schedule: Q01DX009 (ip), vehicle: saline) was 107 % of control.
N#CCC1(c2ccccc2)CCCCC1 was tested, and the T/C [1] was 97 % of control, the T/C [2] was 107 % of control and the T/C [3] was 107 % of control.
With O=C1CCC2=C1C(c1ccc(Cl)c(Cl)c1)C1=C(CCC1=O)O2 the T/C (dose: 100.0 mg/kg/injection, schedule: Q01DX001 (ip), vehicle: Klucel (hydroxypropylcellulose) (HPC)) was 98 % of control, the T/C (dose: 200.0 mg/kg/injection, schedule: Q01DX001 (ip), vehicle: Klucel (hydroxypropylcellulose) (HPC)) was 100 % of control and the T/C (dose: 400.0 mg/kg/injection, schedule: Q01DX001 (ip), vehicle: Klucel (hydroxypropylcellulose) (HPC)) was 102 % of control.
For Cc1noc(N)c1-n1c(C)ccc1C, the T/C (dose: 100.0 mg/kg/injection, schedule: Q04DX003 (ip), vehicle: saline with Tween-80) was 95 % of control, the T/C (dose: 200.0 mg/kg/injection, schedule: Q04DX003 (ip), vehicle: saline with Tween-80) was 100 % of control and the T/C (dose: 400.0 mg/kg/injection, schedule: Q04DX003 (ip), vehicle: saline with Tween-80) was 100 % of control.
Cc1ccc(C(=O)NNC(O)C(F)(F)F)cc1 (configuration not stated) was tested, and the T/C (dose: 100.0 mg/kg/injection, schedule: Q04DX003 (ip), vehicle: Klucel (hydroxypropylcellulose) (HPC)) was 97 % of control and the T/C (dose: 200.0 mg/kg/injection, schedule: Q04DX003 (ip), vehicle: Klucel (hydroxypropylcellulose) (HPC)) was 102 % of control.
In the case of O=C(O)CC(SCP(=O)(O)O)C(=O)O (configuration not stated), the T/C (dose: 30.0 mg/kg/injection, schedule: Q01DX005 (ip), vehicle: saline) is reported as 98 % of control, the T/C (dose: 60.0 mg/kg/injection, schedule: Q01DX005 (ip), vehicle: saline) is reported as 91 % of control and the T/C (dose: 120.0 mg/kg/injection, schedule: Q01DX005 (ip), vehicle: saline) is reported as 89 % of control. For the same molecule, the T/C (dose: 240.0 mg/kg/injection, schedule: Q01DX005 (ip), vehicle: saline) was 93 % of control and 97 % of control.
In the case of CCCCCCCCCCCCCCCCN1CCC2SC3CN(CCCCCCCCCCCCCCCC)CCC3SC2C1 (configuration not stated), the T/C [1] is reported as 99 % of control, the T/C [2] is reported as 96 % of control and the T/C [3] is reported as 97 % of control.
With O=C(Oc1cccc2cccnc12)c1ccc2ccccc2n1 the T/C [4] was 100 % of control and the T/C [5] was 96 % of control.
c1ccc(Cc2ccccc2)cc1 was tested, and the T/C [1] was 105 % of control, the T/C [2] was 110 % of control and the T/C [3] was 109 % of control.
COc1ccc(C(Cc2ccccc2)NCCNCCO)cc1 (configuration not stated) was tested, and the T/C [6] was 101 % of control and the T/C [7] was 101 % of control.
In the case of CN(C)c1ccc(C2(c3ccc(N(C)C)cc3)NNC(=O)c3cc(N(C)C)ccc32)cc1, the T/C (dose: 1.5 mg/kg/injection, schedule: Q01DX005 (ip), vehicle: saline) is reported as 100 % of control, the T/C (dose: 3.0 mg/kg/injection, schedule: Q01DX005 (ip), vehicle: saline) is reported as 93 % of control and the T/C (dose: 6.0 mg/kg/injection, schedule: Q01DX005 (ip), vehicle: saline) is reported as 95 % of control. For the same molecule, the T/C (dose: 6.25 mg/kg/injection, schedule: Q01DX005 (ip), vehicle: saline with Tween-80) was 92 % of control.
For COc1cc2c3cc1Oc1c(O)c(OC)cc4c1[C@H](Cc1ccc(cc1)Oc1cc(ccc1O)C[C@H]3N(C)CC2)N(C)CC4, the T/C (dose: 1.25 mg/kg/injection, schedule: Q01DX009 (ip), vehicle: water) was 100 % of control, the T/C (dose: 2.5 mg/kg/injection, schedule: Q01DX009 (ip), vehicle: water) was 101 % of control and the T/C (dose: 5.0 mg/kg/injection, schedule: Q01DX009 (ip), vehicle: water) was 97 % of control. For the same molecule, the T/C (dose: 10.0 mg/kg/injection, schedule: Q01DX009 (ip), vehicle: water) was 101 % of control, the T/C [8] was 103 % of control and the T/C (dose: 20.0 mg/kg/injection, schedule: Q01DX009 (ip), vehicle: water) was 94 % of control. For the same molecule, the T/C (dose: 40.0 mg/kg/injection, schedule: Q01DX009 (ip), vehicle: other) was 94 % of control and the T/C (dose: 80.0 mg/kg/injection, schedule: Q01DX009 (ip), vehicle: other) was 109 % of control.
For C=C1C(=O)OC2/C=C(\C)CC/C=C(/C=O)CC(OC(=O)C(C)C)C12 (configuration not stated), the T/C (dose: 5.0 mg/kg/injection, schedule: Q01DX009 (ip), vehicle: other) was 100 % of control, the T/C (dose: 10.0 mg/kg/injection, schedule: Q01DX009 (ip), vehicle: other) was 91 % of control and the T/C [8] was 112 % of control.
For O=C1OC2C3COC(=O)c4cc(O)c(O)c(O)c4-c4c(cc(O)c(O)c4O)C(=O)OC2C(OC(=O)c2cc(O)c(O)c4c2[C@@H]2C1=CC(=O)[C@](O)(O4)C2(O)O)C(OC(=O)c1cc(O)c(O)c(O)c1)O3 (some centres not stated), the T/C (dose: 6.25 mg/kg/injection, schedule: Q01DX005 (ip), vehicle: DMSO) was 106 % of control, the T/C (dose: 12.5 mg/kg/injection, schedule: Q01DX005 (ip), vehicle: DMSO) was 106 % of control and the T/C (dose: 25.0 mg/kg/injection, schedule: Q01DX005 (ip), vehicle: DMSO) was 115 % of control.
For COc1ccc(Cc2c(O)ccc3ccccc23)cc1, the T/C (dose: 50.0 mg/kg/injection, schedule: Q01DX005 (ip), vehicle: saline with Tween-80) was 104 % of control, the T/C (dose: 100.0 mg/kg/injection, schedule: Q01DX005 (ip), vehicle: saline with Tween-80) was 104 % of control and the T/C (dose: 200.0 mg/kg/injection, schedule: Q01DX005 (ip), vehicle: saline with Tween-80) was 111 % of control.
In the case of CC(=O)C[C@H](c1ccccc1)c1ccccc1[C@H](C)N(C)C, the T/C [9] is reported as 106 % of control and the T/C [10] is reported as 104 % of control.
In the case of C1CN1c1nc(N2CC2)nc(N2CC2)n1, the T/C (dose: 0.05 mg/kg/injection, schedule: Q01DX009 (ip), vehicle: saline) is reported as 111 % of control, the T/C (dose: 0.13 mg/kg/injection, schedule: Q01DX009 (ip), vehicle: saline) is reported as 115 % of control and the T/C (dose: 0.2 mg/kg/injection, schedule: Q01DX009 (ip), vehicle: saline) is reported as 159 % of control. The T/C (dose: 0.25 mg/kg/injection, schedule: Q01DX009 (ip), vehicle: saline) was 150 % of control and 169 % of control, the T/C (dose: 0.4 mg/kg/injection, schedule: Q01DX009 (ip), vehicle: saline) was 235 % of control and the T/C (dose: 0.5 mg/kg/injection, schedule: Q01DX009 (ip), vehicle: saline) was 106 % of control and 120 % of control and 246 % of control. For the same molecule, the T/C (dose: 1.0 mg/kg/injection, schedule: Q01DX009 (ip), vehicle: saline) was 88 % of control.
In the case of N#CCCOCNC(=O)NCOCCC#N, the T/C [9] is reported as 96 % of control, the T/C [10] is reported as 97 % of control and the T/C (dose: 240.0 mg/kg/injection, schedule: Q01DX005 (ip), vehicle: saline with Tween-80) is reported as 90 % of control.
With COC(=O)C1C(=O)OC(C(C)(C)Cl)C1C(=O)OC (configuration not stated) the T/C [4] was 99 % of control, the T/C [5] was 98 % of control and the T/C [11] was 101 % of control.
For CCC(SC)(SC)C(=O)N(C)c1ccccc1, the T/C (dose: 25.0 mg/kg/injection, schedule: Q01DX009 (ip), vehicle: saline with Tween-80) was 100 % of control, the T/C [1] was 104 % of control and the T/C [2] was 100 % of control.
With Cn1c(=O)c2c(ncn2CCNC(c2ccccc2)c2cccc(Cl)c2)n(C)c1=O (configuration not stated) the T/C (dose: 6.25 mg/kg/injection, schedule: Q01DX005 (ip), vehicle: alkali diluted with saline) was 101 % of control, the T/C (dose: 12.5 mg/kg/injection, schedule: Q01DX005 (ip), vehicle: alkali diluted with saline) was 94 % of control and the T/C (dose: 25.0 mg/kg/injection, schedule: Q01DX005 (ip), vehicle: alkali diluted with saline) was 97 % of control.
In the case of Cc1cc(C=C2C(=O)OC(C)(C)OC2=O)cc(C)c1O, the T/C [6] is reported as 93 % of control, the T/C [7] is reported as 90 % of control and the T/C (dose: 200.0 mg/kg/injection, schedule: Q01DX005 (ip), vehicle: Klucel (hydroxypropylcellulose) (HPC)) is reported as 103 % of control.
In the case of CC(=O)OC1CC2(C)CCC3C(C)C(=O)OC3C2C(C)C1=O (configuration not stated), the T/C [4] is reported as 100 % of control, the T/C [5] is reported as 100 % of control and the T/C [11] is reported as 99 % of control and 100 % of control.
With CC(=O)N1C2C3CCC(C)(OC3(C)C)C21 (configuration not stated) the T/C (dose: 50.0 mg/kg/injection, schedule: Q01DX005 (ip), vehicle: saline) was 107 % of control, the T/C (dose: 100.0 mg/kg/injection, schedule: Q01DX005 (ip), vehicle: saline) was 102 % of control and the T/C (dose: 200.0 mg/kg/injection, schedule: Q01DX005 (ip), vehicle: saline) was 110 % of control.

Source: PubChem BioAssay AID330 (DTP/NCI, 2004)
